Results from patent US4360595A, “Fermentation process for producing anandimycin” (Bristol-Myers Company, priority 1981, dated 1982).
Values after ≈ are worked out from the molar mass of the structure shown. “Also recorded” adds a separate entry of the source. Where two headings read alike, the source gives them in different places.

Assays:
E. coli 15119 = experiment: in vitro MIC, standard tube dilution procedure; format: cell-based
Method: (§1) The in vitro minimum inhibitory concentrations (MIC) of anandimycin were determined against a variety of microorganisms using the standard tube dilution procedure.

E. coli 20341-1 = experiment: in vitro MIC, standard tube dilution procedure; format: cell-based
Method: as §1

Ent. cloacae 9659 = experiment: in vitro MIC, standard tube dilution procedure; format: cell-based
Method: as §1

K. pneumoniae 15130 = experiment: in vitro MIC, standard tube dilution procedure; format: cell-based
Method: as §1

Pr. mirabilis 9900 = experiment: in vitro MIC, standard tube dilution procedure; format: cell-based
Method: as §1

Pr. vulgaris 21559 = experiment: in vitro MIC, standard tube dilution procedure; format: cell-based
Method: as §1

Ps. aeruginosa 9843A = experiment: in vitro MIC, standard tube dilution procedure; format: cell-based; settings: Pseudomonas aeruginosa, read-out: Minimum Inhibitory Concentration
Method: as §1

Ser. marcescens 20019 = experiment: in vitro MIC, standard tube dilution procedure; format: cell-based
Method: as §1

[1] = test system: Staph. aureus (penicillin-resistant) 9606; experiment: in vitro MIC, standard tube dilution procedure; format: cell-based; settings: Staphylococcus aureus, read-out: Minimum Inhibitory Concentration
Method: as §1

Staph. aureus 9587 = experiment: in vitro MIC, standard tube dilution procedure; format: cell-based
Method: as §1

Str. faecalis 20,588 = experiment: in vitro MIC, standard tube dilution procedure; format: cell-based; settings: Enterococcus faecalis, read-out: Minimum Inhibitory Concentration
Method: as §1

Str. pneumoniae 9585 = experiment: in vitro MIC, standard tube dilution procedure; format: cell-based
Method: as §1

Str. pyogenes 9604 = experiment: in vitro MIC, standard tube dilution procedure; format: cell-based
Method: as §1

E. coli = experiment: lysogenic bacterial induction (ILB) assay; format: cell-based
Text: Analytical high pressure liquid chromatography, Bacillus subtilis zone of inhibition, lysogenic bacterial induction and P388 mouse tumor assays are used throughout the above-described separation processes to monitor relative levels of anandimycin and co-produced substances.

P-388 leukemia = experiment: transplantable mouse tumor P-388 leukemia; format: in vivo, mouse (CDF1 female mice); settings: for MST: control 9.0 days; for Effect MST % T/C: ≥ 125 significant
Method: Anandimycin was also tested against the transplantable mouse tumor P-388 leukemia. The methodology used generally followed the protocols of the National Cancer Institute (Cancer Chemotherapy Rep., Part 3, 3, 1-103 (1972). The essential experimental details are given at the bottom of the following table. Two different dose regimens are tested: single dose on day 1 and three doses given on days 1, 5 and 9. The optimal dose was 64 mg/kg. single dose.
Tumor inoculum: 10^6 ascites cells implanted
Host: CDF1 .female. mice
Evaluation: MST = median survival
Effect: % T/C = (MST treated/MST control) ×
Criteria: % T/C ≥ 125 considered significant antitumor
Tox: […] 4/6 mice alive on day 5
AWC = average weight gain (treatedcontrol) in grams (on day 4)

[2] = antimicrobial / antibiotic activity (in words); format: cell-based
[3] = solubility in organic solvents (trituration, chromatography); format: physicochemical; settings: for solubility in chromatography solvents: solvents for (preparative) chromatography
Text: The solids obtained from extraction of the whole broth are next washed with diethyl ether to remove any lard oils and antifoams used in the fermentation. […] To remedy this problem a simple organic solvent trituration scheme was developed which effects a gross separation of the yellow pigments and another class of antitumor agents produced by strain C-22,437 (rachelmycin) from anandimycin on the basis of differential solubility. […] The first step involves trituration of the extraction solids with acetone. The resulting filtrate contains another antitumor substance which is active in the lysogenic bacteria induction assay and the P388 mouse tumor system (rachelmycin). The insoluble solid from the acetone trituration contains the yellow pigments along with a complex of anandimycin and another similar compound. The second phase of the process involves trituration with a ternary organic solvent system 40:30:30(^v/v) chloroform:methanol:tetrahydrofuran. The soluble fraction contains the yellow pigments. […] Substantially pure anandimycin is separated from the enriched mixture using high pressure liquid chromatography on silica gel as described in more detail below.
The analytical solvent system routinely used is hexane:ethyl acetate:isopropanol (30:70:3^v /v) along with 0.1 to 0.4 part water depending on the relative activity state of the silica gel surface in the column being used. If tailing effects are observed, then typically one increases the water content of the solvent system within the 0.1-0.4 part range to improve peak symmetry, thereby permitting a more quantitative analysis.
The preparative solvent system is ethyl acetate:isopropanol:water (87:13:0.5^v /v). […] A shave-recycle method involves increasing the effective silica gel column length through the employment of continuous multiple pass chromatography of the anandimycin-component II band. […] Initial chromatography gave anandimycin enriched to 70-85% purity. Accumulated solids are rechromatographed to yield material of >90% purity. […]

tumors = experiment: antitumor activity (in words); parameters: species or system experimental animals; settings: in vivo
[4] = biological activity (in words)

## C=Cc1cc(OC)c2c(c1)c(=O)oc1c2cc(OC)c2c(O)ccc(C3OC(C(C)O)C(O)C3O)c21 (stereo not shown) [Anandimycin]
E. coli 15119; Escherichia coli, 15119, read-out: Minimum Inhibitory Concentration
  MIC: > 63 µg/mL
E. coli 20341-1; Escherichia coli, 203411, read-out: Minimum Inhibitory Concentration
  MIC: > 63 µg/mL
Ent. cloacae 9659; Enterobacter cloacae, 9659, read-out: Minimum Inhibitory Concentration
  MIC: > 63 µg/mL
K. pneumoniae 15130; Klebsiella pneumoniae, 15130, read-out: Minimum Inhibitory Concentration
  MIC: > 63 µg/mL
Pr. mirabilis 9900; Proteus mirabilis, 9900, read-out: Minimum Inhibitory Concentration
  MIC: > 63 µg/mL
Pr. vulgaris 21559; Proteus vulgaris, 21559, read-out: Minimum Inhibitory Concentration
  MIC: 2 µg/mL (≈ 4.04 µM)
Ps. aeruginosa 9843A; 9843A
  MIC: > 63 µg/mL
Ser. marcescens 20019; Serratia marcescens, 20019, read-out: Minimum Inhibitory Concentration
  MIC: > 63 µg/mL
[1]
  MIC: 0.25 µg/mL (≈ 0.506 µM)
Staph. aureus 9587; Staphylococcus aureus, 9587, read-out: Minimum Inhibitory Concentration
  MIC: 0.06 µg/mL (≈ 0.121 µM)
Str. faecalis 20,588
  MIC: 0.016 µg/mL (≈ 0.0324 µM)
Str. pneumoniae 9585; Streptococcus pneumoniae, 9585, read-out: Minimum Inhibitory Concentration
  MIC: 0.13 µg/mL (≈ 0.263 µM)
Str. pyogenes 9604; Streptococcus pyogenes, 9604, read-out: Minimum Inhibitory Concentration
  MIC: 0.13 µg/mL (≈ 0.263 µM)
E. coli; above 1.6 μg/ml
  toxicity to the host organism (E. coli): toxic to the host organism
E. coli; maximum concentration of 1.6 μg/ml
  ILB activity: completely devoid of ILB activity
P-388 leukemia; d.1,5&9, IP, 0.5 mg/kg/inj.
  AWC Day 4: -0.1 gm.
  Survivors Day 5(30): 6/6
  MST: 9.0 days
  Effect MST % T/C: 100%
P-388 leukemia; d.1,5&9, IP, 1 mg/kg/inj.
  AWC Day 4: +0.6 gm.
  Survivors Day 5(30): 6/6
  MST: 9.0 days
  Effect MST % T/C: 100%
P-388 leukemia; d.1,5&9, IP, 2 mg/kg/inj.
  AWC Day 4: +0.2 gm.
  Survivors Day 5(30): 6/6
  MST: 9.0 days
  Effect MST % T/C: 100%
P-388 leukemia; d.1,5&9, IP, 4 mg/kg/inj.
  AWC Day 4: +0.7 gm.
  Survivors Day 5(30): 6/6
  MST: 10.5 days
  Effect MST % T/C: 117%
P-388 leukemia; d.1,5&9, IP, 8 mg/kg/inj.
  AWC Day 4: +0.2 gm.
  Survivors Day 5(30): 6/6
  MST: 13.5 days
  Effect MST % T/C: 150%
P-388 leukemia; d.1,5&9, IP, 16 mg/kg/inj.
  AWC Day 4: 0 gm.
  Survivors Day 5(30): 5/5
  MST: 13.0 days
  Effect MST % T/C: 144%
P-388 leukemia; d.1, IP, 0.5 mg/kg/inj.
  AWC Day 4: -0.1 gm.
  Survivors Day 5(30): 6/6
  MST: 9.0 days
  Effect MST % T/C: 100%
P-388 leukemia; d.1, IP, 1 mg/kg/inj.
  AWC Day 4: -0.1 gm.
  Survivors Day 5(30): 6/6
  MST: 9.0 days
  Effect MST % T/C: 100%
P-388 leukemia; d.1, IP, 2 mg/kg/inj.
  AWC Day 4: -0.2 gm.
  Survivors Day 5(30): 5/5
  MST: 10.0 days
  Effect MST % T/C: 111%
P-388 leukemia; d.1, IP, 4 mg/kg/inj.
  AWC Day 4: -0.9 gm.
  Survivors Day 5(30): 6/6
  MST: 10.0 days
  Effect MST % T/C: 111%
P-388 leukemia; d.1, IP, 8 mg/kg/inj.
  AWC Day 4: -0.2 gm.
  Survivors Day 5(30): 6/6
  MST: 11.5 days
  Effect MST % T/C: 128%
P-388 leukemia; d.1, IP, 16 mg/kg/inj.
  AWC Day 4: -0.6 gm.
  Survivors Day 5(30): 6/6
  MST: 11.0 days
  Effect MST % T/C: 122%
P-388 leukemia; d.1, IP, 32 mg/kg/inj.
  AWC Day 4: -0.6 gm.
  Survivors Day 5(30): 6/6
  MST: 13.0 days
  Effect MST % T/C: 144%
P-388 leukemia; d.1, IP, 64 mg/kg/inj.
  AWC Day 4: -0.3 gm.
  Survivors Day 5(30): 6/6
  MST: 14.5 days
  Effect MST % T/C: 161%
P-388 leukemia; single dose
  optimal dose: 64 mg/kg
[2]
  antimicrobial / antibiotic activity: exhibit antimicrobial activity
[3]; acetone, 40:30:30 chloroform:methanol:tetrahydrofuran
  solubility in trituration solvents: insoluble
[3]
  solubility in chromatography solvents: poor solubility
tumors
  antitumor activity: inhibit the growth of tumors in experimental animals

## COc1cc2c(oc(=O)c3cc(O)cc(OC)c32)c2c(C3OC(C(C)O)C(O)C3O)ccc(O)c12 (stereo not shown) [Component II]
E. coli 15119; Escherichia coli, E. coli 15119, read-out: Minimum Inhibitory Concentration
  MIC: > 63 µg/mL
E. coli 20341-1; Escherichia coli, 203411, E. coli 20341-1, read-out: Minimum Inhibitory Concentration
  MIC: > 63 µg/mL
Ent. cloacae 9659; Enterobacter cloacae, Ent. cloacae 9659, read-out: Minimum Inhibitory Concentration
  MIC: > 63 µg/mL
K. pneumoniae 15130; Klebsiella pneumoniae, K. pneumoniae 15130, read-out: Minimum Inhibitory Concentration
  MIC: > 63 µg/mL
Pr. mirabilis 9900; Proteus mirabilis, Pr. mirabilis 9900, read-out: Minimum Inhibitory Concentration
  MIC: > 63 µg/mL
Pr. vulgaris 21559; Proteus vulgaris, Pr. vulgaris 21559, read-out: Minimum Inhibitory Concentration
  MIC: > 63 µg/mL
Ps. aeruginosa 9843A; Ps. aeruginosa 9843A
  MIC: > 63 µg/mL
Ser. marcescens 20019; Serratia marcescens, Ser. marcescens 20019, read-out: Minimum Inhibitory Concentration
  MIC: > 63 µg/mL
[1]
  MIC: 0.5 µg/mL (≈ 1.03 µM)
Staph. aureus 9587; Staphylococcus aureus, Staph. aureus 9587, read-out: Minimum Inhibitory Concentration
  MIC: 0.13 µg/mL (≈ 0.268 µM)
Str. faecalis 20,588; Str. faecalis 20,588
  MIC: 0.13 µg/mL (≈ 0.268 µM)
Str. pneumoniae 9585; Streptococcus pneumoniae, Str. pneumoniae 9585, read-out: Minimum Inhibitory Concentration
  MIC: 0.25 µg/mL (≈ 0.516 µM)
Str. pyogenes 9604; Streptococcus pyogenes, Str. pyogenes 9604, read-out: Minimum Inhibitory Concentration
  MIC: 0.5 µg/mL (≈ 1.03 µM)
[3]
  solubility in chromatography solvents: poor solubility
[4]
  biological activity: biologically inactive

## COc1c(O)c2c(c3cc(C(=O)N4CCc5c4c(O)c(OC)c4[nH]c(C(=O)N6CC7CC78C6=CC(=O)c6[nH]cc(C)c68)cc54)[nH]c13)CCN2C(N)=O (stereo not shown) [rachelmycin, reference compound]
E. coli
  lysogenic bacterial induction activity: active; also recorded: possesses both antibiotic and lysogenic bacterial induction activity
P-388 leukemia; filtrate of acetone trituration
  activity in the P388 mouse tumor system: active
[2]
  antimicrobial / antibiotic activity: possesses both antibiotic and lysogenic bacterial induction activity
